Test results as given in ChEMBL document CHEMBL3091402, “Identification of clinical candidates from the benzazepine class of histamine H3 receptor antagonists” (Bioorg Med Chem Lett, 2013).

Assays:
[1] = system: Blood; test: Drug level in rat blood at 3 mg/kg, po; type: ADME, organism-based; set-up: dose 3 mg/kg, route oral; conditions: in vivo, read-out: Drug uptake
[2] = biological target: Histamine H3 receptor (Homo sapiens, UniProt Q9Y5N1); test: Antagonist activity at human histamine H3 receptor expressed in CHOK1 cells assessed as inhibition of GTPgammaS binding; type: functional, cell-based, CHO-K1
[3] = biological target: Histamine H3 receptor (Rattus norvegicus, UniProt Q9QYN8); test: Displacement of [3H]-R-alpha-ethylhistamine from histamine H3 receptor in rat cerebral cortical tissue membranes after 45 mins by liquid scintillation spectrometry
[4] = system: Liver microsome; test: Intrinsic clearance in rat liver microsomes; type: ADME
[5] = system: Rattus norvegicus; test: Ex vivo binding affinity to histamine H3 receptor in rat cerebral cortex using [3H]-R-alpha-ethylhistamine at 3 mg/kg, po after 3 hrs by HPLC analysis; type: functional
[6] = system: Rattus norvegicus; test: Reversal of RAMH-induced dipsogenia in Lister Hooded rat at 3 mg/kg, po treated 2 hrs before RAMH challenge measured after 1 hr; type: functional
[7] = system: Rattus norvegicus; test: Ex vivo binding affinity to histamine H3 receptor in po dosed rat cerebral cortex using [3H]-R-alpha-ethylhistamine after 2 hrs by HPLC analysis; type: functional
[8] = system: Rattus norvegicus; test: Reversal of RAMH-induced dipsogenia in po dosed Lister Hooded rat treated 2 hrs before RAMH challenge measured after 1 hr; type: functional
[9] = Ratio of drug level in brain to blood in rat at 3 mg/kg, po; type: ADME, organism-based; set-up: dose 3 mg/kg, route oral
[10] = Ratio of drug level in brain to blood in rat at 3 mg/kg, po after 1 hr; type: ADME, organism-based; set-up: dose 3 mg/kg, route oral
[11] = system: Rattus norvegicus; test: Ex vivo binding affinity to histamine H3 receptor in rat cerebral cortex using [3H]-R-alpha-ethylhistamine at 0.3 mg/kg, po after 3 hrs by HPLC analysis; type: functional

Sequence of Histamine H3 receptor (Homo sapiens, UniProt Q9Y5N1) (Q9Y5N1 whole entry): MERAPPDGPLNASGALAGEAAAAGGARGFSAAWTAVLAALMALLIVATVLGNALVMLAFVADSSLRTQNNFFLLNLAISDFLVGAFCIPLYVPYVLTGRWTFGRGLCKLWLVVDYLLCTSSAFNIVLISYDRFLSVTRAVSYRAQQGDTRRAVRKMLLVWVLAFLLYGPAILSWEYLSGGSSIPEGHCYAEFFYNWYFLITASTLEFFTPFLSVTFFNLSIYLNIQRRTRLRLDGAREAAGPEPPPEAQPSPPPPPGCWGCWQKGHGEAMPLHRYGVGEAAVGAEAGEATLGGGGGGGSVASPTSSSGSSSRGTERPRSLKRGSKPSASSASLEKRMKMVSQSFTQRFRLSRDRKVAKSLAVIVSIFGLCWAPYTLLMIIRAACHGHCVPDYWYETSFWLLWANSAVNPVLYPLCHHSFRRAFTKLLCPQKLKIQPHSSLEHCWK
Sequence of Histamine H3 receptor (Rattus norvegicus, UniProt Q9QYN8) (Q9QYN8 whole entry): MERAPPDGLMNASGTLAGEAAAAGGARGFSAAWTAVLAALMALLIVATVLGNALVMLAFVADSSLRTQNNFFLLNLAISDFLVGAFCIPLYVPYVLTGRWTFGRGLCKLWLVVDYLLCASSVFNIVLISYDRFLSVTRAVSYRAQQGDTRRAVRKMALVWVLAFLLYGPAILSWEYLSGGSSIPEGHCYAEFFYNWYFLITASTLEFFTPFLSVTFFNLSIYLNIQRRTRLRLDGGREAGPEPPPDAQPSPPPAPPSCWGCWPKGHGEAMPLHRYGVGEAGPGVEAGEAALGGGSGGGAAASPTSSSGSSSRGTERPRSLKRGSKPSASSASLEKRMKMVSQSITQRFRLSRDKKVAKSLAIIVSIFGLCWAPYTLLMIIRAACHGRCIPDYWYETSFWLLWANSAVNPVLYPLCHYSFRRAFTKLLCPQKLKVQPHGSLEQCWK

concentration [1]	Ki [2]	Ki [3]	CLH [4]	Kp [9]	Kp at 1 h [10]	Structure (SMILES)	Activity [5]	Activity [6]	ED50 [7]	ED50 [8]	Activity [11]
0.01 µM	0.251 nM	0.631 nM	< 3 mL/min/g	–	–	O=C(c1ccc(Oc2ccc3c(c2)CCN(C2CCC2)CC3)nc1)N1CCCC1	65%	78%	–	–	–
0.55 µM	0.126 nM	0.794 nM	–	1	–	O=C1CCCN1c1ccc(Oc2ccc3c(c2)CCN(C2CCCC2)CC3)nc1	88%	–	0.1 mg/kg	0.04 mg/kg	–
–	–	–	–	–	–	O=C(N1CCOCC1)N1CCC(Oc2ccc3c(c2)CCN(C2CCC2)CC3)CC1	43%	100%	2 mg/kg	–	–
–	0.316 nM	2.51 nM	–	–	–	O=C1CCCCN1c1ccc(Oc2ccc3c(c2)CCN(C2CCC2)CC3)nc1	10%	–	–	–	–
0.27 µM	0.631 nM	10 nM	< 3 mL/min/g	–	1	CCN(C)C(=O)c1ccc(Oc2ccc3c(c2)CCN(C2CCC2)CC3)nc1	56%	94%	–	–	–
–	0.501 nM	–	–	–	–	CNC(=O)c1ccc(Oc2ccc3c(c2)CCN(C2CCCC2)CC3)nc1	61%	–	–	–	–
–	2.51 nM	–	–	–	–	c1cncc(Oc2ccc3c(c2)CCN(C2CCC2)CC3)c1	–	–	–	–	–
–	0.2 nM	3.98 nM	–	–	–	Cc1nc(Oc2ccc3c(c2)CCN(C2CCC2)CC3)ccc1C#N	18%	–	–	–	–
–	0.251 nM	2.51 nM	–	–	–	c1cc(-c2ccc(Oc3ccc4c(c3)CCN(C3CCC3)CC4)nc2)[nH]n1	–	–	–	–	23%
–	0.501 nM	2 nM	< 3 mL/min/g	–	–	NC(=O)c1ccc(Oc2ccc3c(c2)CCN(C2CCC2)CC3)nc1	81%	–	–	–	–
–	0.501 nM	2.51 nM	–	–	–	Cc1noc(C)c1-c1ccc(Oc2ccc3c(c2)CCN(C2CCC2)CC3)nc1	48%	–	–	–	–
2.7 µM	0.158 nM	0.501 nM	–	2.8	–	Cc1nnc(-c2ccc(Oc3ccc4c(c3)CCN(C3CCC3)CC4)nc2)o1	84%	–	0.42 mg/kg	0.05 mg/kg	–
0.54 µM	0.501 nM	5.01 nM	–	2.5	–	CNC(=O)c1ccc(Oc2ccc3c(c2)CCN(C2CCC2)CC3)cc1	68%	–	–	–	–
0.57 µM	0.501 nM	3.98 nM	–	3.4	–	CNC(=O)c1ccc(Oc2ccc3c(c2)CCN(C2CCC2)CC3)cn1	82%	–	0.43 mg/kg	0.25 mg/kg	–
–	0.126 nM	0.631 nM	< 3 mL/min/g	–	–	CC(C)NC(=O)c1ccc(Oc2ccc3c(c2)CCN(C2CCC2)CC3)nc1	–	–	–	–	19%
–	0.1 nM	0.631 nM	–	–	–	CC(=O)c1ccc(Oc2ccc3c(c2)CCN(C2CCC2)CC3)cn1	–	–	–	–	66%
